Measurements reported in paper PMC6979384, “Characterization of the plant homeodomain (PHD) reader family for their histone tail interactions” (Epigenetics & Chromatin, 2020).

Tests used:
Test in all cases: Histone peptide microarray
Assay type in all cases: binding, human
KDM4C (TTP) = settings: each array performed twice, total n = 4; for Array Heatmap signal (histone peptide microarray): GST-tagged KDM4C (TTP = Tandem Tudor domain + PHD), sheet Array Heatmap
Procedure, shortened: (§1)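 Mean ± SD of 4 replicate array intensities; GST-PHD finger at 0.5 μM against 293 PTM-bearing histone peptides.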

CHD4 (PPCC) = settings: each array performed twice, total n = 4; for Array Heatmap signal (histone peptide microarray): GST-tagged CHD4 (PPCC = Dual PHD + Dual Chromodomain), sheet Array Heatmap
Procedure, shortened: as §1

BPTF (PB) = settings: each array performed twice, total n = 4; for Array Heatmap signal (histone peptide microarray): GST-tagged BPTF (PB = PHD + Bromodomain), sheet Array Heatmap
Procedure, shortened: as §1

KDM5A (1) = settings: each array performed twice, total n = 4; for Array Heatmap signal (histone peptide microarray): GST-tagged KDM5A (1), sheet Array Heatmap
Procedure, shortened: as §1

KDM7A = settings: each array performed twice, total n = 4; for Array Heatmap signal (histone peptide microarray): GST-tagged KDM7A, sheet Array Heatmap
Procedure, shortened: as §1

KDM5B (3) = settings: each array performed twice, total n = 4; for Array Heatmap signal (histone peptide microarray): GST-tagged KDM5B (3), sheet Array Heatmap
Procedure, shortened: as §1

PHF23 = settings: each array performed twice, total n = 4; for Array Heatmap signal (histone peptide microarray): GST-tagged PHF23, sheet Array Heatmap
Procedure, shortened: as §1

ING3 = settings: each array performed twice, total n = 4; for Array Heatmap signal (histone peptide microarray): GST-tagged ING3, sheet Array Heatmap
Procedure, shortened: as §1

ING1 = settings: each array performed twice, total n = 4; for Array Heatmap signal (histone peptide microarray): GST-tagged ING1, sheet Array Heatmap
Procedure, shortened: as §1

AIRE (PP) = settings: each array performed twice, total n = 4; for Array Heatmap signal (histone peptide microarray): GST-tagged AIRE (PP), sheet Array Heatmap
Procedure, shortened: as §1

DPF2 (PPC2W2) = settings: each array performed twice, total n = 4; for Array Heatmap signal (histone peptide microarray): GST-tagged DPF2 (PPC2W2 = Dual PHD + C2W2-type Zn-finger), sheet Array Heatmap
Procedure, shortened: as §1

BAZ2B = settings: each array performed twice, total n = 4; for Array Heatmap signal (histone peptide microarray): GST-tagged BAZ2B, sheet Array Heatmap
Procedure, shortened: as §1

TAF3 = settings: each array performed twice, total n = 4; for Array Heatmap signal (histone peptide microarray): GST-tagged TAF3, sheet Array Heatmap
Procedure, shortened: as §1

SP140L = settings: each array performed twice, total n = 4; for Array Heatmap signal (histone peptide microarray): GST-tagged SP140L, sheet Array Heatmap
Procedure, shortened: as §1

KDM5B (1) = settings: each array performed twice, total n = 4; for Array Heatmap signal (histone peptide microarray): GST-tagged KDM5B (1), sheet Array Heatmap
Procedure, shortened: as §1

KDM5A (3) = settings: each array performed twice, total n = 4; for Array Heatmap signal (histone peptide microarray): GST-tagged KDM5A (3), sheet Array Heatmap
Procedure, shortened: as §1

PHF8 = settings: each array performed twice, total n = 4; for Array Heatmap signal (histone peptide microarray): GST-tagged PHF8, sheet Array Heatmap
Procedure, shortened: as §1

MLL5 = settings: each array performed twice, total n = 4; for Array Heatmap signal (histone peptide microarray): GST-tagged MLL5, sheet Array Heatmap
Procedure, shortened: as §1

TRIM66 (PB) = settings: each array performed twice, total n = 4; for Array Heatmap signal (histone peptide microarray): GST-tagged TRIM66 (PB = PHD + Bromodomain), sheet Array Heatmap
Procedure, shortened: as §1

ING5 = settings: each array performed twice, total n = 4; for Array Heatmap signal (histone peptide microarray): GST-tagged ING5, sheet Array Heatmap
Procedure, shortened: as §1

ING2 = settings: each array performed twice, total n = 4; for Array Heatmap signal (histone peptide microarray): GST-tagged ING2, sheet Array Heatmap
Procedure, shortened: as §1

PHF21A = settings: each array performed twice, total n = 4; for Array Heatmap signal (histone peptide microarray): GST-tagged PHF21A, sheet Array Heatmap
Procedure, shortened: as §1

MORC3 (CW) = settings: each array performed twice, total n = 4; for Array Heatmap signal (histone peptide microarray): GST-tagged MORC3 (CW = CW-type Zn-finger), sheet Array Heatmap
Procedure, shortened: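 Steps: express and purify GST-tagged PHD reader; incubate 0.5 μM protein on a peptide microarray (293 histone peptides, single or combined PTMs) following an optimized protocol; average signal across 4 replicates.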

PHRF1 (RP) = settings: each array performed twice, total n = 4; for Array Heatmap signal (histone peptide microarray): GST-tagged PHRF1 (RP), sheet Array Heatmap
Procedure, shortened: as §1

DIDO1 = settings: each array performed twice, total n = 4; for Array Heatmap signal (histone peptide microarray): GST-tagged DIDO1, sheet Array Heatmap
Procedure, shortened: as §1

PHF2 = settings: each array performed twice, total n = 4; for Array Heatmap signal (histone peptide microarray): GST-tagged PHF2, sheet Array Heatmap
Procedure, shortened: as §1

CHD5 (PPCC) = settings: each array performed twice, total n = 4; for Array Heatmap signal (histone peptide microarray): GST-tagged CHD5 (PPCC = Dual PHD + Dual Chromodomain), sheet Array Heatmap
Procedure, shortened: as §1

CHD5 (PCC) = settings: each array performed twice, total n = 4; for Array Heatmap signal (histone peptide microarray): GST-tagged CHD5 (PCC = PHD + Dual Chromodomain), sheet Array Heatmap
Procedure, shortened: as §1

PHF13 = settings: each array performed twice, total n = 4; for Array Heatmap signal (histone peptide microarray): GST-tagged PHF13, sheet Array Heatmap
Procedure, shortened: as §1

RAG2 = settings: each array performed twice, total n = 4; for Array Heatmap signal (histone peptide microarray): GST-tagged RAG2, sheet Array Heatmap
Procedure, shortened: as §1

ING4 = settings: each array performed twice, total n = 4; for Array Heatmap signal (histone peptide microarray): GST-tagged ING4, sheet Array Heatmap
Procedure, shortened: as §1

H3K4me3 (1-11): H3 1-11
Array Heatmap value (peptide array signal) (KDM4C (TTP); KDM4C (TTP), sheet "Array Heatmap"): 0.5306 | Array Heatmap value (peptide array signal) (CHD4 (PPCC); CHD4 (PPCC), sheet "Array Heatmap"): 0.5943 | Array Heatmap value (peptide array signal) (BPTF (PB); BPTF (PB), sheet "Array Heatmap"): 0.3697 | Array Heatmap value (peptide array signal) (KDM5A (1); KDM5A (1), sheet "Array Heatmap"): 0.5087 | Array Heatmap value (peptide array signal) (KDM7A; KDM7A, sheet "Array Heatmap"): 0.4006 | Array Heatmap value (peptide array signal) (KDM5B (3); KDM5B (3), sheet "Array Heatmap"): 0.5281 | Array Heatmap value (peptide array signal) (PHF23; PHF23, sheet "Array Heatmap"): 0.5829 | Array Heatmap value (peptide array signal) (ING3; ING3, sheet "Array Heatmap"): 0.5106 | Array Heatmap value (peptide array signal) (ING1; ING1, sheet "Array Heatmap"): 0.5841 | Array Heatmap value (peptide array signal) (AIRE (PP); AIRE (PP), sheet "Array Heatmap"): 0.5119 | Array Heatmap value (peptide array signal) (DPF2 (PPC2W2); DPF2 (PPC2W2), sheet "Array Heatmap"): 0.6949 | Array Heatmap value (peptide array signal) (BAZ2B; BAZ2B, sheet "Array Heatmap"): 0.4805 | Array Heatmap value (peptide array signal) (TAF3; TAF3, sheet "Array Heatmap"): 0.3193 | Array Heatmap value (peptide array signal) (SP140L; SP140L, sheet "Array Heatmap"): 0.3833 | Array Heatmap value (peptide array signal) (KDM5B (1); KDM5B (1), sheet "Array Heatmap"): 0.6584 | Array Heatmap value (peptide array signal) (KDM5A (3); KDM5A (3), sheet "Array Heatmap"): 0.6017 | Array Heatmap value (peptide array signal) (PHF8; PHF8, sheet "Array Heatmap"): 0.4899 | Array Heatmap value (peptide array signal) (MLL5; MLL5, sheet "Array Heatmap"): 0.6217 | Array Heatmap value (peptide array signal) (TRIM66 (PB); TRIM66 (PB), sheet "Array Heatmap"): 0.5622 | Array Heatmap value (peptide array signal) (ING5; ING5, sheet "Array Heatmap"): 0.3839 | Array Heatmap value (peptide array signal) (ING2; ING2, sheet "Array Heatmap"): 0.6411 | Array Heatmap value (peptide array signal) (PHF21A; PHF21A, sheet "Array Heatmap"): 0.5172 | Array Heatmap value (peptide array signal) (MORC3 (CW); MORC3 (CW), sheet "Array Heatmap"): 0.5155 | Array Heatmap value (peptide array signal) (PHRF1 (RP); PHRF1 (RP), sheet "Array Heatmap"): 0.4768 | Array Heatmap value (peptide array signal) (DIDO1; DIDO1, sheet "Array Heatmap"): 0.7285 | Array Heatmap value (peptide array signal) (PHF2; PHF2, sheet "Array Heatmap"): 0.5693 | Array Heatmap value (peptide array signal) (CHD5 (PPCC); CHD5 (PPCC), sheet "Array Heatmap"): 0.5701 | Array Heatmap value (peptide array signal) (CHD5 (PCC); CHD5 (PCC), sheet "Array Heatmap"): 0.8101 | Array Heatmap value (peptide array signal) (PHF13; PHF13, sheet "Array Heatmap"): 0.6221 | Array Heatmap value (peptide array signal) (RAG2; RAG2, sheet "Array Heatmap"): 0.3044 | Array Heatmap value (peptide array signal) (ING4; ING4, sheet "Array Heatmap"): 0.465

H3K4me3 + K9ac + K14ac + K18ac: H3 1-20
Array Heatmap signal (histone peptide microarray) (KDM4C (TTP)): 0.6463 | Array Heatmap signal (histone peptide microarray) (CHD4 (PPCC)): 0.5745 | Array Heatmap signal (histone peptide microarray) (BPTF (PB)): 0.7619 | Array Heatmap signal (histone peptide microarray) (KDM5A (1)): 0.4983 | Array Heatmap signal (histone peptide microarray) (KDM7A): 0.5567 | Array Heatmap signal (histone peptide microarray) (KDM5B (3)): 0.8339 | Array Heatmap signal (histone peptide microarray) (PHF23): 0.8373 | Array Heatmap signal (histone peptide microarray) (ING3): 0.8559 | Array Heatmap signal (histone peptide microarray) (ING1): 0.7787 | Array Heatmap signal (histone peptide microarray) (AIRE (PP)): 0.4865 | Array Heatmap signal (histone peptide microarray) (DPF2 (PPC2W2)): 0.7652 | Array Heatmap signal (histone peptide microarray) (BAZ2B): 0.6196 | Array Heatmap signal (histone peptide microarray) (TAF3): 0.6574 | Array Heatmap signal (histone peptide microarray) (SP140L): 0.3627 | Array Heatmap signal (histone peptide microarray) (KDM5B (1)): 0.7481 | Array Heatmap signal (histone peptide microarray) (KDM5A (3)): 0.9909 | Array Heatmap signal (histone peptide microarray) (PHF8): 0.7502 | Array Heatmap signal (histone peptide microarray) (MLL5): 0.936 | Array Heatmap signal (histone peptide microarray) (TRIM66 (PB)): 0.6004 | Array Heatmap signal (histone peptide microarray) (ING5): 0.4716 | Array Heatmap signal (histone peptide microarray) (ING2): 0.8772 | Array Heatmap signal (histone peptide microarray) (PHF21A): 0.4925 | Array Heatmap signal (histone peptide microarray) (MORC3 (CW)): 1 | Array Heatmap signal (histone peptide microarray) (PHRF1 (RP)): 0.5895 | Array Heatmap signal (histone peptide microarray) (DIDO1): 0.9126 | Array Heatmap signal (histone peptide microarray) (PHF2): 0.7873 | Array Heatmap signal (histone peptide microarray) (CHD5 (PPCC)): 0.5931 | Array Heatmap signal (histone peptide microarray) (CHD5 (PCC)): 0.8618 | Array Heatmap signal (histone peptide microarray) (PHF13): 0.7829 | Array Heatmap signal (histone peptide microarray) (RAG2): 0.8746 | Array Heatmap signal (histone peptide microarray) (ING4): 0.625

H3K4me3 + K9ac + K18ac: H3 1-20
Array Heatmap signal (histone peptide microarray) (KDM4C (TTP)): 0.7748 | Array Heatmap signal (histone peptide microarray) (CHD4 (PPCC)): 0.5646 | Array Heatmap signal (histone peptide microarray) (BPTF (PB)): 0.7655 | Array Heatmap signal (histone peptide microarray) (KDM5A (1)): 0.5009 | Array Heatmap signal (histone peptide microarray) (KDM7A): 1 | Array Heatmap signal (histone peptide microarray) (KDM5B (3)): 0.9067 | Array Heatmap signal (histone peptide microarray) (PHF23): 0.8424 | Array Heatmap signal (histone peptide microarray) (ING3): 0.8253 | Array Heatmap signal (histone peptide microarray) (ING1): 0.8615 | Array Heatmap signal (histone peptide microarray) (AIRE (PP)): 0.5297 | Array Heatmap signal (histone peptide microarray) (DPF2 (PPC2W2)): 0.728 | Array Heatmap signal (histone peptide microarray) (BAZ2B): 0.5371 | Array Heatmap signal (histone peptide microarray) (TAF3): 0.7825 | Array Heatmap signal (histone peptide microarray) (SP140L): 0.3543 | Array Heatmap signal (histone peptide microarray) (KDM5B (1)): 0.7108 | Array Heatmap signal (histone peptide microarray) (KDM5A (3)): 0.919 | Array Heatmap signal (histone peptide microarray) (PHF8): 1 | Array Heatmap signal (histone peptide microarray) (MLL5): 0.9085 | Array Heatmap signal (histone peptide microarray) (TRIM66 (PB)): 0.7372 | Array Heatmap signal (histone peptide microarray) (ING5): 0.4905 | Array Heatmap signal (histone peptide microarray) (ING2): 0.8776 | Array Heatmap signal (histone peptide microarray) (PHF21A): 0.4825 | Array Heatmap signal (histone peptide microarray) (MORC3 (CW)): 0.8949 | Array Heatmap signal (histone peptide microarray) (PHRF1 (RP)): 0.6174 | Array Heatmap signal (histone peptide microarray) (DIDO1): 0.9071 | Array Heatmap signal (histone peptide microarray) (PHF2): 0.7127 | Array Heatmap signal (histone peptide microarray) (CHD5 (PPCC)): 0.6046 | Array Heatmap signal (histone peptide microarray) (CHD5 (PCC)): 0.8455 | Array Heatmap signal (histone peptide microarray) (PHF13): 0.8179 | Array Heatmap signal (histone peptide microarray) (RAG2): 0.8902 | Array Heatmap signal (histone peptide microarray) (ING4): 0.6909
